Several values for one entry are separate records, joined by “and”; a condition that tells them apart may be missing. Equal entries are not always repeated. Toxic doses and inconclusive results are not listed. How the source made its calls: active means survival T/C of 150% or more; inactive means T/C below 125% in these data.
System: CD2F1 mice, L1210 leukemia ip, survival T/C
Experiment: NCI In Vivo Anticancer Drug Screen. Data for tumor model L1210 Leukemia (intraperitoneal) in CD2F1 (CDF1) mice
Details: higher = longer survival
Summary of the method: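 Transplantable tumor in mice; compound-treated vs vehicle-treated groups. Read-out = treated/control ratio of the measured endpoint.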

[1] = endpoint: mean survival time, dose: 12.5 mg/kg/injection, schedule: Q01DX009 (ip), vehicle: saline with Tween-80
[2] = endpoint: mean survival time, dose: 25.0 mg/kg/injection, schedule: Q01DX009 (ip), vehicle: saline with Tween-80
[3] = endpoint: mean survival time, dose: 50.0 mg/kg/injection, schedule: Q01DX009 (ip), vehicle: saline with Tween-80

Measured: T/C

O=c1n(CC2CO2)c(=O)n(CC2CO2)c(=O)n1CC1CO1 (centres undefined)
206 % of control and 123 % of control: endpoint: mean survival time, dose: 6.25 mg/kg/injection, schedule: Q01DX009 (ip), vehicle: suspension in saline
active: [1] 166 % of control and 157 % of control | endpoint: mean survival time, dose: 12.5 mg/kg/injection, schedule: Q01DX009 (ip), vehicle: suspension in saline 162 % of control | endpoint: mean survival time, dose: 20.0 mg/kg/injection, schedule: Q01DX009 (ip), vehicle: saline 178 % of control | [2] 291 % of control | endpoint: mean survival time, dose: 25.0 mg/kg/injection, schedule: Q01DX009 (ip), vehicle: saline 151 % of control and 177 % of control and 158 % of control | endpoint: mean survival time, dose: 25.0 mg/kg/injection, schedule: Q01DX009 (ip), vehicle: suspension in saline 276 % of control and 152 % of control | endpoint: mean survival time, dose: 25.0 mg/kg/injection, schedule: Q04DX003 (ip), vehicle: saline 182 % of control | endpoint: mean survival time, dose: 25.0 mg/kg/injection, schedule: Q04DX005 (ip), vehicle: saline 165 % of control | endpoint: mean survival time, dose: 30.0 mg/kg/injection, schedule: Q01DX009 (ip), vehicle: saline 164 % of control | endpoint: mean survival time, dose: 30.0 mg/kg/injection, schedule: Q01DX010 (ip), vehicle: saline 166 % of control | endpoint: mean survival time, dose: 40.0 mg/kg/injection, schedule: Q01DX010 (ip), vehicle: saline 195 % of control | endpoint: mean survival time, dose: 50.0 mg/kg/injection, schedule: Q01DX001 (ip), vehicle: saline 160 % of control and 205 % of control | [3] 170 % of control | endpoint: mean survival time, dose: 50.0 mg/kg/injection, schedule: Q01DX009 (ip), vehicle: saline 151 % of control | endpoint: mean survival time, dose: 50.0 mg/kg/injection, schedule: Q01DX010 (ip), vehicle: saline 219 % of control | endpoint: mean survival time, dose: 50.0 mg/kg/injection, schedule: Q04DX003 (ip), vehicle: saline 187 % of control | endpoint: mean survival time, dose: 50.0 mg/kg/injection, schedule: Q04DX005 (ip), vehicle: saline 259 % of control and 340 % of control | endpoint: mean survival time, dose: 60.0 mg/kg/injection, schedule: Q01DX001 (ip), vehicle: saline 168 % of control and 202 % of control | endpoint: mean survival time, dose: 60.0 mg/kg/injection, schedule: Q01DX009 (ip), vehicle: saline 467 % of control | endpoint: mean survival time, dose: 70.0 mg/kg/injection, schedule: Q01DX001 (ip), vehicle: saline 291 % of control | endpoint: mean survival time, dose: 75.0 mg/kg/injection, schedule: Q04DX003 (ip), vehicle: saline 154 % of control | endpoint: mean survival time, dose: 75.0 mg/kg/injection, schedule: Q04DX005 (ip), vehicle: saline 208 % of control and 581 % of control | endpoint: mean survival time, dose: 80.0 mg/kg/injection, schedule: Q01DX001 (ip), vehicle: saline 202 % of control and 351 % of control | endpoint: median survival time, dose: 5.0 mg/kg/injection, schedule: Q03HX024 (ip), vehicle: saline 167 % of control | endpoint: median survival time, dose: 10.0 mg/kg/injection, schedule: Q03HX008 (ip), vehicle: saline 167 % of control | endpoint: median survival time, dose: 10.0 mg/kg/injection, schedule: Q03HX016 (ip), vehicle: saline 176 % of control | endpoint: median survival time, dose: 10.0 mg/kg/injection, schedule: Q03HX024 (ip), vehicle: saline 212 % of control | endpoint: median survival time, dose: 12.5 mg/kg/injection, schedule: Q01DX005 (ip), vehicle: saline 150 % of control | endpoint: median survival time, dose: 20.0 mg/kg/injection, schedule: Q01DX009 (ip), vehicle: saline 175 % of control | endpoint: median survival time, dose: 20.0 mg/kg/injection, schedule: Q03HX008 (ip), vehicle: saline 637 % of control | endpoint: median survival time, dose: 20.0 mg/kg/injection, schedule: Q03HX016 (ip), vehicle: saline 172 % of control | endpoint: median survival time, dose: 25.0 mg/kg/injection, schedule: Q01DX005 (ip), vehicle: saline 380 % of control | endpoint: median survival time, dose: 25.0 mg/kg/injection, schedule: Q04DX003 (ip), vehicle: saline 167 % of control | endpoint: median survival time, dose: 40.0 mg/kg/injection, schedule: Q01DX005 (ip), vehicle: saline 216 % of control | endpoint: median survival time, dose: 40.0 mg/kg/injection, schedule: Q01DX009 (ip), vehicle: saline 253 % of control and 750 % of control | endpoint: median survival time, dose: 40.0 mg/kg/injection, schedule: Q03HX016 (ip), vehicle: saline 160 % of control | endpoint: median survival time, dose: 50.0 mg/kg/injection, schedule: Q01DX001 (ip), vehicle: saline 160 % of control and 166 % of control | endpoint: median survival time, dose: 50.0 mg/kg/injection, schedule: Q01DX005 (ip), vehicle: saline 750 % of control | endpoint: median survival time, dose: 50.0 mg/kg/injection, schedule: Q01DX009 (ip), vehicle: saline 750 % of control | endpoint: median survival time, dose: 50.0 mg/kg/injection, schedule: Q04DX003 (ip), vehicle: saline 253 % of control | endpoint: median survival time, dose: 50.0 mg/kg/injection, schedule: Q08DX002 (ip), vehicle: saline 187 % of control | endpoint: median survival time, dose: 60.0 mg/kg/injection, schedule: Q01DX005 (ip), vehicle: saline 275 % of control | endpoint: median survival time, dose: 60.0 mg/kg/injection, schedule: Q01DX009 (ip), vehicle: saline 178 % of control | endpoint: median survival time, dose: 200.0 mg/kg/injection, schedule: Q01DX009 (oral), vehicle: saline 151 % of control | endpoint: median survival time, dose: 200.0 mg/kg/injection, schedule: Q04DX003 (oral), vehicle: saline 191 % of control | endpoint: median survival time, dose: 200.0 mg/kg/injection, schedule: Q08DX002 (oral), vehicle: saline 163 % of control | endpoint: median survival time, dose: 250.0 mg/kg/injection, schedule: Q01DX009 (oral), vehicle: saline 151 % of control | endpoint: median survival time, dose: 250.0 mg/kg/injection, schedule: Q08DX002 (ip), vehicle: saline 160 % of control | endpoint: median survival time, dose: 300.0 mg/kg/injection, schedule: Q08DX002 (oral), vehicle: saline 185 % of control | endpoint: median survival time, dose: 350.0 mg/kg/injection, schedule: Q01DX001 (ip), vehicle: saline 151 % of control | endpoint: median survival time, dose: 450.0 mg/kg/injection, schedule: Q01DX001 (ip), vehicle: saline 160 % of control
inactive: endpoint: mean survival time, dose: 50.0 mg/kg/injection, schedule: Q01DX009 (ip), vehicle: suspension in saline 94 % of control | endpoint: mean survival time, dose: 75.0 mg/kg/injection, schedule: Q01DX009 (ip), vehicle: saline 91 % of control | endpoint: mean survival time, dose: 80.0 mg/kg/injection, schedule: Q01DX009 (ip), vehicle: saline 104 % of control | endpoint: median survival time, dose: 12.5 mg/kg/injection, schedule: Q01DX001 (ip), vehicle: saline 121 % of control | endpoint: median survival time, dose: 12.5 mg/kg/injection, schedule: Q01DX001 (iv), vehicle: saline 101 % of control | endpoint: median survival time, dose: 12.5 mg/kg/injection, schedule: Q01DX005 (iv), vehicle: saline 113 % of control | endpoint: median survival time, dose: 12.5 mg/kg/injection, schedule: Q01DX009 (oral), vehicle: saline 105 % of control | endpoint: median survival time, dose: 20.0 mg/kg/injection, schedule: Q03HX024 (ip), vehicle: saline 116 % of control | endpoint: median survival time, dose: 25.0 mg/kg/injection, schedule: Q01DX001 (iv), vehicle: saline 107 % of control | endpoint: median survival time, dose: 25.0 mg/kg/injection, schedule: Q01DX009 (oral), vehicle: saline 110 % of control | endpoint: median survival time, dose: 50.0 mg/kg/injection, schedule: Q04DX003 (oral), vehicle: saline 116 % of control | endpoint: median survival time, dose: 70.0 mg/kg/injection, schedule: Q01DX005 (ip), vehicle: saline 110 % of control | endpoint: median survival time, dose: 100.0 mg/kg/injection, schedule: Q01DX001 (iv), vehicle: saline 100 % of control | endpoint: median survival time, dose: 100.0 mg/kg/injection, schedule: Q01DX001 (oral), vehicle: saline 123 % of control | endpoint: median survival time, dose: 100.0 mg/kg/injection, schedule: Q08DX002 (ip), vehicle: saline 122 % of control | endpoint: median survival time, dose: 150.0 mg/kg/injection, schedule: Q01DX005 (oral), vehicle: saline 116 % of control | endpoint: median survival time, dose: 350.0 mg/kg/injection, schedule: Q04DX003 (oral), vehicle: saline 122 % of control | endpoint: median survival time, dose: 350.0 mg/kg/injection, schedule: Q08DX002 (oral), vehicle: saline 119 % of control | endpoint: median survival time, dose: 400.0 mg/kg/injection, schedule: Q04DX003 (oral), vehicle: saline 120 % of control | endpoint: median survival time, dose: 450.0 mg/kg/injection, schedule: Q04DX003 (oral), vehicle: saline 118 % of control | endpoint: median survival time, dose: 450.0 mg/kg/injection, schedule: Q08DX002 (oral), vehicle: saline 118 % of control | endpoint: median survival time, dose: 500.0 mg/kg/injection, schedule: Q08DX002 (oral), vehicle: saline 123 % of control
300 % of control and 109 % of control: endpoint: mean survival time, dose: 40.0 mg/kg/injection, schedule: Q01DX009 (ip), vehicle: saline
221 % of control and 122 % of control: endpoint: median survival time, dose: 300.0 mg/kg/injection, schedule: Q04DX003 (oral), vehicle: saline

CN(C)C(=O)c1ccc[n+](CC(=O)Nc2ccccc2)c1
inactive: endpoint: mean survival time, dose: 100.0 mg/kg/injection, schedule: Q04DX003 (ip), vehicle: saline 103 % of control | endpoint: mean survival time, dose: 200.0 mg/kg/injection, schedule: Q04DX003 (ip), vehicle: saline 101 % of control | endpoint: mean survival time, dose: 400.0 mg/kg/injection, schedule: Q04DX003 (ip), vehicle: saline 103 % of control

CC(C#N)(C#N)N=Nc1ccc(Cl)cc1Cl
inactive: [1] 96 % of control and 102 % of control | [2] 100 % of control and 104 % of control | [3] 98 % of control and 107 % of control | endpoint: mean survival time, dose: 100.0 mg/kg/injection, schedule: Q01DX009 (ip), vehicle: saline with Tween-80 101 % of control and 107 % of control | endpoint: mean survival time, dose: 200.0 mg/kg/injection, schedule: Q01DX009 (ip), vehicle: saline with Tween-80 101 % of control and 111 % of control | endpoint: mean survival time, dose: 400.0 mg/kg/injection, schedule: Q01DX009 (ip), vehicle: saline with Tween-80 113 % of control and 102 % of control

N#CC(C#N)=C(C#N)c1ccccc1
inactive: [1] 96 % of control | [2] 98 % of control | endpoint: mean survival time, dose: 50.0 mg/kg/injection, schedule: Q01DX001 (ip), vehicle: saline with Tween-80 94 % of control | [3] 94 % of control
